Assay results from patent publication US10130655B2, “Composition and method for pre-surgical skin disinfection” (GOJO INDUSTRIES, INC., priority 2006, dated 2018).

Assay: Irritation potential, independent laboratory testing (Total Cumulative Irritation, Berger & Bowman)
Details: in vivo
Excerpt: Independent laboratory testing compared irritation potential of commercial products, controls, and a disinfecting composition according to the present invention.

SMILES: CCCCCCCCCCCCOS(=O)(=O)[O-].[Na+] [Sodium Lauryl Sulfate]
- Berger & Bowman Classification: Possibly Mild in use
- CIT Score (Total Cumulative Irritation): 1321.0
